{"source": "patent US6365623B1", "about": "“Treatment of acne using lipoic acid” (priority 1997, dated 2002)", "key": {"[1]": {"test": "Skin penetration after topical application", "type": "in vivo", "conditions": "four hours after application to skin", "source_text": "While not wishing to be bound to any theory, it is possible that lipoic acid is efficacious in the treatment of acne because it is both fat- and water-soluble and readily disperses in cell membranes and other cellular components. […] Because of its solubility, it is sometimes referred to as a universal antioxidant. It acts as a free radical scavenger and neutralizer, and prevents the cross-linking of cell membranes that is often seen in acne in its post-inflammatory phases. By the same token, LA modulation of free radicals and other oxidative species affects gene expression, including expression of nuclear factor κ-B (NF-κB), nitric oxide synthetase and other mediators at all stages of proinflammation and inflammation. Lipoic acid's alteration of lipid peroxidation, protein cross-linking, growth factor stimulation, and membrane permeability may explain its negative effect on the symptoms of acne."}, "[2]": {"tested_on": "affected skin areas", "test": "Adverse side effects in clinical studies to date (topical application)", "type": "in vivo, human", "source_text": "Generally in the practice of the method of the invention, the composition is topically applied to the affected skin areas in a predetermined or as-needed regimen either at intervals by application of a lotion or the like, it generally being the case that gradual improvements is noted with each successive application."}, "[3]": {"tested_on": "patients with acne vulgaris and/or acneiform scars", "test": "Clinical study of 5% lipoic acid cream applied to the face, assessed by a dermatologist", "type": "in vivo, human", "description": "The following examples are presented to further illustrate and explain the present invention and should not be taken as limiting in any regard. Unless otherwise indicated, all percentages are by weight. Lipoic acid was supplied by the Henkel Corporation and was placed into a lecithin-based oil-in-water cream at a level of 5% for use by acne patients. This composition was used in the studies unless otherwise indicated.\nEight patients with acne vulgaris and/or acneiform scars were evaluated and photographed at the beginning of the study. The patients were asked to cleanse their faces with Cetaphil™ lotion twice daily, and then to apply the test lipoic acid composition. Clinical evaluations were made every four weeks thereafter. Photographs were retaken at the end of twelve weeks, and five patients continued treatment for up to a year.\nThe following parameters were reported in clinical assessments by a dermatologist in the follow-up evaluations:\n1. visibly apparent changes in erythema\n2. visibly apparent changes in pore size"}, "[4]": {"conditions": "5% lipoic acid in lecithin-based oil-in-water cream, topical twice daily, one value per patient (Pt. #1-#8)"}}, "note": "Values joined by “and” are separate entries in the source; they are usually repeats but may differ in a detail not shown here. Equal values may be shown once."}
{"molecule": "O=C(O)CCCCC1CCSS1", "note": "(centres unmarked) [lipoic acid, 1,2-dithiolane-3-pentanoic acid]", "values": [{"measurement": "concentration in sebaceous gland tissue", "setting": "[1]", "result": "high concentrations"}, {"measurement": "adverse side effects", "setting": "[2]", "result": "no adverse side effects"}, {"measurement": "improvement in two patients with severe atrophic acne scars", "setting": "[3]; 5% cream, topical twice daily", "result": 80, "unit": "%"}, {"measurement": "improvement of atrophic scars, all patients with atrophic scars", "setting": "[3]; 5% cream, topical twice daily", "result": "improved"}, {"measurement": "change in pustules, papules, and comedones", "setting": "[3]; 5% cream, within three to four weeks, benefits continued to increase over three to four months", "result": "marked decrease"}, {"measurement": "Erythema % Improvement", "setting": "[3]; [4]", "result": "80% (3×) and 50% (5×)"}, {"measurement": "Pore Size % Improvement", "setting": "[3]; [4]", "result": "50% (3×) and 90% (5×)"}, {"measurement": "Scar Depth % Improvement", "setting": "[3]; [4]", "result": "50% (4×) and 80% (2×) and 70% (2×)"}]}
